Consider 19 compounds from PubChem BioAssay AID248 (DTP/NCI, 2004).

Molecules are shown by their SMILES. Where “and” joins values, the source holds several entries; their conditions need not be identical. Equal values may be shown once. Toxic doses and inconclusive results are not listed.

This assay concerns L1210 leukemia ip in BDF1 mice, survival T/C. Description: NCI In Vivo Anticancer Drug Screen. Data for tumor model L1210 Leukemia (intraperitoneal) in B6D2F1 (BDF1) mice. Conditions: higher = longer survival. In a few lines:
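Survival endpoint. Drug-treated group vs vehicle group, expressed as T divided by C. Tumor passaged by transplantation.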

Setting [1] is: endpoint: mean survival time, dose: 100.0 mg/kg/injection, schedule: Q01DX001 (ip), vehicle: carboxymethylcellulose (CMC).
The mark [2] stands for this setting: endpoint: mean survival time, dose: 200.0 mg/kg/injection, schedule: Q01DX001 (ip), vehicle: carboxymethylcellulose (CMC).
Setting [3] is: endpoint: mean survival time, dose: 400.0 mg/kg/injection, schedule: Q01DX001 (ip), vehicle: carboxymethylcellulose (CMC).
Setting [4] is: endpoint: mean survival time, dose: 100.0 mg/kg/injection, schedule: Q01DX009 (ip), vehicle: saline with Tween-80.
The mark [5] stands for this setting: endpoint: mean survival time, dose: 200.0 mg/kg/injection, schedule: Q01DX009 (ip), vehicle: saline with Tween-80.
[6] abbreviates: endpoint: mean survival time, dose: 400.0 mg/kg/injection, schedule: Q01DX009 (ip), vehicle: saline with Tween-80.
Where [7] appears, read: endpoint: mean survival time, dose: 100.0 mg/kg/injection, schedule: Q04DX003 (ip), vehicle: Klucel (hydroxypropylcellulose) (HPC).
Setting [8] is: endpoint: mean survival time, dose: 200.0 mg/kg/injection, schedule: Q04DX003 (ip), vehicle: Klucel (hydroxypropylcellulose) (HPC).
The mark [9] stands for this setting: endpoint: mean survival time, dose: 400.0 mg/kg/injection, schedule: Q04DX003 (ip), vehicle: Klucel (hydroxypropylcellulose) (HPC).
Where [10] appears, read: endpoint: mean survival time, dose: 100.0 mg/kg/injection, schedule: Q01DX009 (ip), vehicle: Klucel (hydroxypropylcellulose) (HPC).
The mark [11] stands for this setting: endpoint: mean survival time, dose: 200.0 mg/kg/injection, schedule: Q01DX009 (ip), vehicle: Klucel (hydroxypropylcellulose) (HPC).
[12] abbreviates: endpoint: mean survival time, dose: 400.0 mg/kg/injection, schedule: Q01DX009 (ip), vehicle: Klucel (hydroxypropylcellulose) (HPC).

Regarding `O=C(Cc1ccccc1)OC1CC2CC1C1CCCC21` (stereo not given), the T/C is, setting by setting: (endpoint: mean survival time, dose: 50.0 mg/kg/injection, schedule: Q01DX001 (ip), vehicle: carboxymethylcellulose (CMC)) 96 % of control; under setting [1], 98 % of control; under setting [2], 104 % of control; under setting [3], 96 % of control.
In the case of `CCOC(=S)SCCC(=O)O`, the T/C under setting [4] was 95 % of control.
Take `CCOC(=O)CNC(=O)NCCc1ccccc1`: the T/C was 112 % of control under setting [4], 96 % of control under setting [5] and 87 % of control under setting [6].
For `CCCCCCCC(=O)[O][Hg][c]1ccccc1`, the T/C is, setting by setting: (endpoint: mean survival time, dose: 9.38 mg/kg/injection, schedule: Q01DX001 (ip), vehicle: saline) 98 % of control; (endpoint: mean survival time, dose: 18.75 mg/kg/injection, schedule: Q01DX001 (ip), vehicle: saline) 88 % of control; (endpoint: mean survival time, dose: 37.5 mg/kg/injection, schedule: Q01DX001 (ip), vehicle: saline) 102 % of control.
Take `CC1CC(C)(C)OCO1` (stereo not given): the T/C under setting [7] was 100 % of control, the T/C under setting [8] is 93 % of control and the T/C under setting [9] was 86 % of control.
As to `COc1cc(/C=N/NC(=O)c2cc(OC)c(OC)c(OC)c2)ccc1O`, the T/C runs as follows: under setting [4], 93 % of control; under setting [5], 93 % of control; under setting [6], 90 % of control.
With `CCC1NC(C)(C)CC1=C(C)C` (stereo not given), the T/C was 101 % of control (endpoint: mean survival time, dose: 3.13 mg/kg/injection, schedule: Q01DX009 (ip), vehicle: saline); 96 % of control (endpoint: mean survival time, dose: 6.25 mg/kg/injection, schedule: Q01DX009 (ip), vehicle: saline); 96 % of control (endpoint: mean survival time, dose: 12.5 mg/kg/injection, schedule: Q01DX009 (ip), vehicle: saline).
Take `CN1CCOc2ccccc2OCCOCCOc2ccccc2OCC1`: the T/C was 100 % of control (endpoint: mean survival time, dose: 100.0 mg/kg/injection, schedule: Q01DX001 (ip), vehicle: Klucel (hydroxypropylcellulose) (HPC)); 96 % of control (endpoint: mean survival time, dose: 200.0 mg/kg/injection, schedule: Q01DX001 (ip), vehicle: Klucel (hydroxypropylcellulose) (HPC)); 102 % of control (endpoint: mean survival time, dose: 400.0 mg/kg/injection, schedule: Q01DX001 (ip), vehicle: Klucel (hydroxypropylcellulose) (HPC)).
Take `O=C(O)c1cccc(I)c1.[Ni]`: the T/C was 100 % of control (endpoint: mean survival time, dose: 25.0 mg/kg/injection, schedule: Q04DX002 (ip), vehicle: gum acacia) and 94 % of control (endpoint: mean survival time, dose: 50.0 mg/kg/injection, schedule: Q04DX002 (ip), vehicle: gum acacia).
Take `CC1=CC(=O)CC(c2ccccc2)C1` (stereo not given): the T/C by setting is: under setting [1], 105 % of control; under setting [2], 103 % of control; under setting [3], 109 % of control.
Regarding `CCCCCCCCC(CCCCCCCC)C1CCCCC1`, the T/C runs as follows: (endpoint: mean survival time, dose: 100.0 mg/kg/injection, schedule: Q01DX001 (ip), vehicle: saline with Tween-80) 98 % of control; (endpoint: mean survival time, dose: 200.0 mg/kg/injection, schedule: Q01DX001 (ip), vehicle: saline with Tween-80) 95 % of control; (endpoint: mean survival time, dose: 400.0 mg/kg/injection, schedule: Q01DX001 (ip), vehicle: saline with Tween-80) 93 % of control.
As for `C/C(=N\O)C1(C)CC=CCC1CO` (stereo not given), the T/C runs as follows: (endpoint: mean survival time, dose: 100.0 mg/kg/injection, schedule: Q04DX003 (ip), vehicle: saline with Tween-80) 101 % of control; (endpoint: mean survival time, dose: 200.0 mg/kg/injection, schedule: Q04DX003 (ip), vehicle: saline with Tween-80) 101 % of control; (endpoint: mean survival time, dose: 400.0 mg/kg/injection, schedule: Q04DX003 (ip), vehicle: saline with Tween-80) 96 % of control.
As for `C[N+](C)(C)c1ccc(N2C(=O)C3C4c5ccccc5C(C3C2=O)[n+]2ccccc24)cc1` (stereo not given), the T/C (endpoint: mean survival time, dose: 1.56 mg/kg/injection, schedule: Q01DX009 (ip), vehicle: Klucel (hydroxypropylcellulose) (HPC)) was 103 % of control; the T/C (endpoint: mean survival time, dose: 3.12 mg/kg/injection, schedule: Q01DX009 (ip), vehicle: Klucel (hydroxypropylcellulose) (HPC)) was 97 % of control; the T/C (endpoint: mean survival time, dose: 6.25 mg/kg/injection, schedule: Q01DX009 (ip), vehicle: Klucel (hydroxypropylcellulose) (HPC)) was 100 % of control; the T/C (endpoint: mean survival time, dose: 12.5 mg/kg/injection, schedule: Q04DX003 (ip), vehicle: saline) was 101 % of control; the T/C (endpoint: mean survival time, dose: 25.0 mg/kg/injection, schedule: Q04DX003 (ip), vehicle: saline) was 94 % of control.
`CN1CCC(=O)c2ccccc21`: the T/C is, setting by setting: (endpoint: mean survival time, dose: 75.0 mg/kg/injection, schedule: Q01DX001 (ip), vehicle: other) 97 % of control; (endpoint: mean survival time, dose: 150.0 mg/kg/injection, schedule: Q01DX001 (ip), vehicle: other) 100 % of control; (endpoint: mean survival time, dose: 300.0 mg/kg/injection, schedule: Q01DX001 (ip), vehicle: other) 100 % of control.
For `O=C(COc1ccccc1Cl)NCc1ccc(Cl)cc1`, the T/C was 92 % of control under setting [10]; 93 % of control under setting [7]; 88 % of control under setting [11]; 95 % of control under setting [8]; 103 % of control under setting [12]; 93 % of control under setting [9].
In the case of `CCOC12c3ccccc3N(S(C)(=O)=O)C(C)C1C2(Br)Br` (stereo not given), the T/C under setting [10] is 94 % of control; the T/C under setting [7] was 110 % of control; the T/C under setting [11] is 94 % of control; the T/C under setting [8] is 102 % of control; the T/C under setting [12] was 90 % of control; the T/C under setting [9] is 109 % of control.
For `CCCN(C)/N=N/c1nc[nH]c1C(N)=O`, the T/C (endpoint: mean survival time, dose: 22.0 mg/kg/injection, schedule: Q01DX009 (ip), vehicle: carboxymethylcellulose (CMC)) is 120 % of control; the T/C (endpoint: mean survival time, dose: 37.5 mg/kg/injection, schedule: Q01DX Z (ip), vehicle: carboxymethylcellulose (CMC)) is 151 % of control; the T/C (endpoint: mean survival time, dose: 50.0 mg/kg/injection, schedule: Q01DX009 (ip), vehicle: carboxymethylcellulose (CMC)) is 151 % of control; the T/C (endpoint: mean survival time, dose: 50.0 mg/kg/injection, schedule: Q01DX Z (ip), vehicle: carboxymethylcellulose (CMC)) was 158 % of control; the T/C (endpoint: mean survival time, dose: 75.0 mg/kg/injection, schedule: Q01DX009 (ip), vehicle: carboxymethylcellulose (CMC)) was 157 % of control; the T/C (endpoint: mean survival time, dose: 88.0 mg/kg/injection, schedule: Q01DX001 (ip), vehicle: carboxymethylcellulose (CMC)) was 106 % of control. The T/C by setting is: (endpoint: mean survival time, dose: 89.0 mg/kg/injection, schedule: Q01DX001 (ip), vehicle: carboxymethylcellulose (CMC)) 117 % of control; (endpoint: mean survival time, dose: 100.0 mg/kg/injection, schedule: Q01DX009 (ip), vehicle: carboxymethylcellulose (CMC)) 152 % of control; (endpoint: mean survival time, dose: 133.0 mg/kg/injection, schedule: Q01DX001 (ip), vehicle: carboxymethylcellulose (CMC)) 101 % of control and 124 % of control; under setting [2], 103 % of control; (endpoint: mean survival time, dose: 300.0 mg/kg/injection, schedule: Q01DX001 (ip), vehicle: carboxymethylcellulose (CMC)) 104 % of control and 117 % of control; (endpoint: median survival time, dose: 12.5 mg/kg/injection, schedule: Q01DX009 (ip), vehicle: steriod suspending solution) 116 % of control and 122 % of control. Besides, the T/C was 166 % of control (endpoint: median survival time, dose: 50.0 mg/kg/injection, schedule: Q01DX009 (ip), vehicle: steriod suspending solution) and 122 % of control (endpoint: median survival time, dose: 100.0 mg/kg/injection, schedule: Q01DX009 (ip), vehicle: steriod suspending solution).
Consider `O=C(CN1CCCCC1)Nc1cccc(C(F)(F)F)c1`, for which the T/C was 99 % of control under setting [10]; 97 % of control under setting [7]; 100 % of control under setting [11]; 98 % of control under setting [8]; 100 % of control under setting [12]; 93 % of control under setting [9].
For the compound `CCOC(=O)CNN`, the T/C runs as follows: (endpoint: mean survival time, dose: 4.0 mg/kg/injection, schedule: Q01DX009 (ip), vehicle: saline) 93 % of control; (endpoint: mean survival time, dose: 8.0 mg/kg/injection, schedule: Q01DX009 (ip), vehicle: saline) 108 % of control; (endpoint: mean survival time, dose: 16.0 mg/kg/injection, schedule: Q01DX009 (ip), vehicle: saline) 103 % of control; (endpoint: mean survival time, dose: 28.0 mg/kg/injection, schedule: Q01DX001 (ip), vehicle: saline) 101 % of control; (endpoint: mean survival time, dose: 56.0 mg/kg/injection, schedule: Q01DX001 (ip), vehicle: saline) 108 % of control; (endpoint: mean survival time, dose: 112.0 mg/kg/injection, schedule: Q01DX001 (ip), vehicle: saline) 114 % of control.
